Assay results: PubChem BioAssay AID504934 (The Scripps Research Institute Molecular Screening Center, 2011)
The source made the active and inactive calls. No rule for the calls is given here.

Assays:
Experiment in all cases: PubChem AID 504934
TR4 = details: nuclear receptor panel Gal4 luciferase reporter, at 10 µM
[1] = target: Bile acid receptor (Homo sapiens) (UniProt Q96RI1); details: nuclear receptor panel Gal4 luciferase reporter, FXR, at 10 µM
pBIND-1 = details: nuclear receptor panel Gal4 luciferase reporter, at 10 µM
HNF4g = details: nuclear receptor panel Gal4 luciferase reporter, at 10 µM
TR2 = details: nuclear receptor panel Gal4 luciferase reporter, at 10 µM
Coup-TF1 = details: nuclear receptor panel Gal4 luciferase reporter, at 10 µM
[2] = target: Peroxisome proliferator-activated receptor alpha (Homo sapiens) (UniProt Q07869); details: nuclear receptor panel Gal4 luciferase reporter, PPARa, at 10 µM
Nurr1 = details: nuclear receptor panel Gal4 luciferase reporter, at 10 µM
Rev-erb a = details: nuclear receptor panel Gal4 luciferase reporter, at 10 µM
THRb = details: nuclear receptor panel Gal4 luciferase reporter, at 10 µM
Rev-erb b = details: nuclear receptor panel Gal4 luciferase reporter, at 10 µM
[3] = target: Oxysterols receptor LXR-beta (Homo sapiens) (UniProt P55055); details: nuclear receptor panel Gal4 luciferase reporter, LXRb, at 10 µM
[4] = target: Peroxisome proliferator-activated receptor gamma (Homo sapiens) (UniProt P37231); details: nuclear receptor panel Gal4 luciferase reporter, PPARg, at 10 µM
[5] = target: Hepatocyte nuclear factor 4-alpha (Homo sapiens) (UniProt P41235); details: nuclear receptor panel Gal4 luciferase reporter, HNF4a, at 10 µM
GCNR = details: nuclear receptor panel Gal4 luciferase reporter, at 10 µM
THRa = details: nuclear receptor panel Gal4 luciferase reporter, at 10 µM
LXRa = details: nuclear receptor panel Gal4 luciferase reporter, at 10 µM
Nur77 = details: nuclear receptor panel Gal4 luciferase reporter, at 10 µM
NOR1 = details: nuclear receptor panel Gal4 luciferase reporter, at 10 µM
SHP = details: nuclear receptor panel Gal4 luciferase reporter, at 10 µM
VP16 Control Plasmid = details: nuclear receptor panel Gal4 luciferase reporter, at 10 µM
RARg = details: nuclear receptor panel Gal4 luciferase reporter, at 10 µM
PPARd = details: nuclear receptor panel Gal4 luciferase reporter, at 10 µM
[6] = target: Retinoic acid receptor alpha (Homo sapiens) (UniProt P10276); details: nuclear receptor panel Gal4 luciferase reporter, RARa, at 10 µM
Chain of Retinoic acid receptor alpha (Homo sapiens) (P10276 whole entry, looked up, the tested form may be a part): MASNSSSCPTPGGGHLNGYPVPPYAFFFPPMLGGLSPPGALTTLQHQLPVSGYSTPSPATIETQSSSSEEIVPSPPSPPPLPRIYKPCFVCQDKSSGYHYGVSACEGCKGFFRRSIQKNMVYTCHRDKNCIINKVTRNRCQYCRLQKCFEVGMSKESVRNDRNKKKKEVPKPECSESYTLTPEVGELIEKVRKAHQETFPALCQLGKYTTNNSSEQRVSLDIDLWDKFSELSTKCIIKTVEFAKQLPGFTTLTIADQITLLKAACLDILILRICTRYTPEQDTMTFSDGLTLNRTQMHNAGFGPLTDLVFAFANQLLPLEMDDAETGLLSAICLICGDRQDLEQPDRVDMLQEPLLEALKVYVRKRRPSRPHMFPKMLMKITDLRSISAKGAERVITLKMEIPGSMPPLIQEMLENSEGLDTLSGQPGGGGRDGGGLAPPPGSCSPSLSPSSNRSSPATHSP

Chain of Oxysterols receptor LXR-beta (Homo sapiens) (P55055 whole entry, looked up, the tested form may be a part): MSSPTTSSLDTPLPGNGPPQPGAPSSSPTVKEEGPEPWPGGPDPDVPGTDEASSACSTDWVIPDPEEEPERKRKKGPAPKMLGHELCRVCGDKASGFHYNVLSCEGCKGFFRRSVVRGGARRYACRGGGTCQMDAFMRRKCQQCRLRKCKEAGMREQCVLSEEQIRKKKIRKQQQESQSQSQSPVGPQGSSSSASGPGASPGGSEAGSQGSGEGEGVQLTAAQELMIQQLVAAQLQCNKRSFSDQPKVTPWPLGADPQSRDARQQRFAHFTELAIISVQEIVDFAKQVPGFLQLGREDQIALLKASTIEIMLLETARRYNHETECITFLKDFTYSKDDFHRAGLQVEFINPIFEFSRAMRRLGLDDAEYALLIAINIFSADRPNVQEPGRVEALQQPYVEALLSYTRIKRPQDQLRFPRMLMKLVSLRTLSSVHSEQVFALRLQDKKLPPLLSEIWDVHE
Chain of Peroxisome proliferator-activated receptor gamma (Homo sapiens) (P37231 whole entry, looked up, the tested form may be a part): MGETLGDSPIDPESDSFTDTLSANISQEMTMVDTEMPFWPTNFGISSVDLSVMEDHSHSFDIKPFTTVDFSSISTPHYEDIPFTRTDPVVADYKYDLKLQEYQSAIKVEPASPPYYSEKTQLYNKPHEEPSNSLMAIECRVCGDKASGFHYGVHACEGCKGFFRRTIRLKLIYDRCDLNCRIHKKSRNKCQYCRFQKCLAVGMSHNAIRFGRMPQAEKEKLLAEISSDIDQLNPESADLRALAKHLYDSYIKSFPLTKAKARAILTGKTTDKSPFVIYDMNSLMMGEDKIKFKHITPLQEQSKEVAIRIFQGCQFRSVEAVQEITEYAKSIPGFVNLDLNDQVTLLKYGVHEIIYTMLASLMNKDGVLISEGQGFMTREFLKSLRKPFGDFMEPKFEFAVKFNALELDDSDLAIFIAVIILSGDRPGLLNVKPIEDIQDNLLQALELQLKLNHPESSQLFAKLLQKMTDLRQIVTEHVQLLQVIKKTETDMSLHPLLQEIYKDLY
Chain of Peroxisome proliferator-activated receptor alpha (Homo sapiens) (Q07869 whole entry, looked up, the tested form may be a part): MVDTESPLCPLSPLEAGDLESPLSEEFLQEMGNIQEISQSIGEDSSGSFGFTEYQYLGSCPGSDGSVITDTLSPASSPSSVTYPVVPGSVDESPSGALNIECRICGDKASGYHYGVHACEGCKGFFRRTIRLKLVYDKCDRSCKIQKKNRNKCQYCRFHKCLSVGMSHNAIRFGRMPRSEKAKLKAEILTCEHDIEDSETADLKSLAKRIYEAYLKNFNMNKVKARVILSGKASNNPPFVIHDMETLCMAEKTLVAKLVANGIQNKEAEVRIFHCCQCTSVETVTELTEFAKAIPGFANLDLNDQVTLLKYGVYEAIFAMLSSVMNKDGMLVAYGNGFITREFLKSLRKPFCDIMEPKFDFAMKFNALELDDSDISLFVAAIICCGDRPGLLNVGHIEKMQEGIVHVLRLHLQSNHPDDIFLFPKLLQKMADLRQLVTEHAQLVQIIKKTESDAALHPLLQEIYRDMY
Chain of Bile acid receptor (Homo sapiens) (Q96RI1 whole entry, looked up, the tested form may be a part): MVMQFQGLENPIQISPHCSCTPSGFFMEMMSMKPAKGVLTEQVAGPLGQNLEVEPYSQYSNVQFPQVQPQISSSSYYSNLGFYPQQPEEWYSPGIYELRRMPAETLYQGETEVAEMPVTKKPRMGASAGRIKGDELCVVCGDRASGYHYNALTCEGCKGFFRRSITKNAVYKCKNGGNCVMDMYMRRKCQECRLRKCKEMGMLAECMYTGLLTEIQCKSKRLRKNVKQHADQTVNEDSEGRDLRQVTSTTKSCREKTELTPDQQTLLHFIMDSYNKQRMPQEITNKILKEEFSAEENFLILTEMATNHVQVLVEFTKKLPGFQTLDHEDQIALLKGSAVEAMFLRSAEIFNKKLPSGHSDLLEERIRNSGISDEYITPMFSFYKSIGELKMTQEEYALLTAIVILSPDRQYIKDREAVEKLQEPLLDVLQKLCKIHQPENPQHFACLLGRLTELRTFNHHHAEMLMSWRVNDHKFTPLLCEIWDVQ
Chain of Hepatocyte nuclear factor 4-alpha (Homo sapiens) (P41235 whole entry, looked up, the tested form may be a part): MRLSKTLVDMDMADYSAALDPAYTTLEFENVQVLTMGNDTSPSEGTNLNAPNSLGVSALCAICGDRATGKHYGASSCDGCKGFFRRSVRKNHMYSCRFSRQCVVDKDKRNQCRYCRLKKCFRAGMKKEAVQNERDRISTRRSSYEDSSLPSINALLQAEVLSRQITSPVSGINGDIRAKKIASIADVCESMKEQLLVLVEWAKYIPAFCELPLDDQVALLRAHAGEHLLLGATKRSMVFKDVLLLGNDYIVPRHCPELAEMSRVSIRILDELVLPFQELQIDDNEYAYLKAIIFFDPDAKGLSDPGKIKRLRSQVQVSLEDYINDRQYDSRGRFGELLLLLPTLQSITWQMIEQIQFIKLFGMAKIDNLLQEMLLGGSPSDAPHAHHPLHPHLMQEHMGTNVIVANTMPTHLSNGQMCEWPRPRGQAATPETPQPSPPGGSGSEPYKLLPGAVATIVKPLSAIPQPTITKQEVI

fold change (TR4): 0.8 | fold change [1]: 2.52 | fold change (HNF4g): 0.44 | fold change (TR2): 0.63 | fold change (Coup-TF1): 0.72 | fold change [2]: 1.11 (inactive) | fold change (Nurr1): 0.79 | fold change (Rev-erb a): 0.84 (inactive) | fold change (THRb): 1.06 (inactive) | fold change (Rev-erb b): 0.69 | fold change [3]: 1.9 (inactive) | fold change [4]: 0.86 (inactive) | fold change [5]: 0.61 | fold change (GCNR): 1.06 (inactive) | fold change (THRa): 1.69 | fold change (LXRa): 1.27 | fold change (Nur77): 0.72 | fold change (NOR1): 0.87 (inactive) | fold change (SHP): 0.86 (inactive) | fold change (VP16 Control Plasmid): 0.82 (inactive) | fold change (RARg): 0.56 | fold change (PPARd): 1.54 | fold change [6]: 0.47
Structure (SMILES): O=c1cc(N2CCN(c3cccc(Cl)c3)CC2)[nH]c(=O)n1C1CCCCC1
fold change (pBIND-1): 1.28
